Consider two molecules from patent publication US20090208432A1, “AH Receptor Antagonists” (SYMRISE GmbH & Co., KG, priority 2006, published 2009).

This data set concerns the target T1, AhR (Homo sapiens, UniProt P35869).
T1 construct: endogenous in cells; host or cells: HaCaT keratinocytes
T1 sequence (P35869 11-848): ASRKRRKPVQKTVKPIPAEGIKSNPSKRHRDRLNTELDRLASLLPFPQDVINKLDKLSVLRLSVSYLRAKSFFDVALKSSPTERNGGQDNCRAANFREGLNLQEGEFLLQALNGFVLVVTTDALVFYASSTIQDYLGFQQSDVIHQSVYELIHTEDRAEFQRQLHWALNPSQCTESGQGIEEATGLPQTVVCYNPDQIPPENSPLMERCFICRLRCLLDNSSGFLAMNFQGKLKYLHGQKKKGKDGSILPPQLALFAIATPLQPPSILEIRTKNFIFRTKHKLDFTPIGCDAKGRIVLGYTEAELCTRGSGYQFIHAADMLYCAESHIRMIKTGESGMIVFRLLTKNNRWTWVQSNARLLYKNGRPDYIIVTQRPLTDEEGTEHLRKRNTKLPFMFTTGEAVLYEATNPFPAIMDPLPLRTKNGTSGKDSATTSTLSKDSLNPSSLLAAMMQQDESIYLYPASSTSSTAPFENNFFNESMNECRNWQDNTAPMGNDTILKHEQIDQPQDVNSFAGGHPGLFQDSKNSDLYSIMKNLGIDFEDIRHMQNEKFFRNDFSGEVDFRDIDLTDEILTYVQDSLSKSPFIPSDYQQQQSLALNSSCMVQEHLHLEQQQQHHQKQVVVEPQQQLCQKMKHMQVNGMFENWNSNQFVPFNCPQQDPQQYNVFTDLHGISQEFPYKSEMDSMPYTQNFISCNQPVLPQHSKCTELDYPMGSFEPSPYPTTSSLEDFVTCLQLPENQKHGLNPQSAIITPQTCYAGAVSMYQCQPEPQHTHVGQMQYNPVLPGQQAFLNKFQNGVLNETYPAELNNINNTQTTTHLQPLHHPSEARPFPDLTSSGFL
Briefly: Quantification of AhR inhibition via determination of CYP1A1-mRNA in UVB-irradiated HaCaT keratinocytes. Format: cell-based. The conditions noted are these: HaCaT cells, 100 J/m^2 UVB, pretreated 1 h before irradiation, RNA after 4 h, relative to control (PBS, 0.1% DMSO, UVB-irradiated). An excerpt:
HaCaT keratinocytes were cultivated in DMEM containing 10% of foetal calf serum. The cells were irradiated with UVB in PBS (phosphate buffered saline). For irradiation with UVB we used a TL20W/12RS lamp, which contains four parallel tubes (Philips, Eindhoven, The Netherlands) and emits the bulk of its energy in the UVB range (290-320 nm). The emission peak of the lamp is at 310 nm. Control cells were subjected to the same treatment but were not irradiated. To inhibit the AhR, the cells were treated with the test substances 1 h prior to irradiation.
HaCaT cells were irradiated with 100 J/m^2 of UVB. Some cells were pretreated with the test substances 1 h prior to irradiation. […] The PCR mix was composed of 1/10 by volume of QuantiTect® SYBR Green PCR Master Mix (Qiagen, Hilden, Germany), 0.5 μmol/l of the appropriate primer, 2 μl of cDNA and DEPC-treated (diethyl pyrocarbonate-treated) H2O in a final volume of 20 μl. […] The PCR conditions were as follows: 40 cycles of 15 sec at 94° C. for denaturing, 25 sec at 60° C. for primer attachment, 30 sec at 72° C. for extension and 2 sec at 72° C. for fluorescence measurement. […] The PCR products were quantified via a fragment-specific standard curve using LightCycler software 3. […]
Quantification of AhR Inhibition Via Determination of CYP1A1-mRNA

The term inhibition denotes the share of the control response that was lost under treatment. `Oc1ccc2c(c1)OC[C@H]1c3cc4c(cc3O[C@@H]21)OCO4` [Maackiain]: the inhibition at 350 µM (0.35 mM, read-out: CYP1A1 inhibition in presence of UVB light) turned out to be 60%. Turning to `Oc1ccc2c(c1)OC1c3cc(O)c(O)cc3COC1C2O` (centres unmarked) [Peltogynol], the “CYP1A1 inhibition in presence of UVB light” value (0.0001 wt. %) amounted to 60%.
